Experimental data from article PMC3676791, “Synthesis, Cytotoxicity, DNA Binding and Apoptosis of Rhein-Phosphonate Derivatives as Antitumor Agents” (International Journal of Molecular Sciences, 2013).
Where two headings read alike, the source gives them in different places.

Columns and labels:
HepG-2 cells [1] = experiment: MTT cytotoxicity assay, HepG-2; format: cell-based, human; conditions: 72 h, mean ± SD, three independent experiments
Text: (§1) The following in vitro human cancer cell lines were used: HepG 2 ([…]), Hela (Henrietta Lacks strain of cancer cells), Hct-116 (human colorectal cells), CNE (human nasopharyngeal carcinoma cells), Spca-2 (human lung adenocarcinoma cell line), HUVEC (human umbilical vein endothelial cells). The cell lines (HepG 2, Hela, Hct-116, CNE, Spca-2, HUVEC) were purchased from the Cell Resource Center of Shanghai Institutes for Biological Sciences, The Academy of Sciences of China.
(§2) HepG-2, Hela, Hct-116, CNE, HUVEC cells were cultured in Dulbecco Modified Eagle Medium (DMEM) (Thermo), containing 4.0 mM L-Glutamine and 4,500 mg/L Glucose, supplemented with 10% (v/v) fetal bovine serum (FBS; HyClone, Logan, UT, USA). Spca-2 cells were cultured in RPMI-1640 medium, containing 2.05 mM L-Glutamine without Calcium nitrate, supplemented with 10% (v/v) fetal bovine serum (FBS; HyClone). The cell culture media was supplemented with penicillin/streptomycin at 100 Units/mL as adherent monolayers. Cell cultures were kept in a humidified incubator with 5% CO2 at 37 °C. Stock solutions were prepared in dimethyl sulfoxide (DMSO) and further dilutions were made with fresh culture medium. The concentration of DMSO in the final culture medium was 1%, which had no effect on the cell viability.
(§3) Chemosensitivity was assessed using 3-(4,5-dimethylthiazol-2-yl)-2,5-diphenyl tetrazolium bromide (MTT) assay. Briefly, exponentially growing HepG-2 (2,000–3,000 cells/well), Hela (2,000–3,000 cells/well), Hct-116 (3,000–4,000 cells/well), CNE (2,000–3,000 cells/well), HUVEC (2,000–3,000 cells/well) and Spca-2 […], and then […] of MTT (10 mg/mL) was added. After incubation for 4 h at 37 °C, the purple formazan crystals (i.e., a reduced form of MTT) generated from viable cells were dissolved by adding 100 μL DMSO in each well. The plates were swirled gently for 10 min to dissolve the precipitate, and quantified by measuring the optical density (OD) of the plates at a wavelength of 490 nm on plate reader (TECAN infinite M1000). Each concentration was repeated in three wells and the same experimental conditions were provided for all compounds and MTT analysis was repeated three times for each cell line.

Hela cells = experiment: MTT cytotoxicity assay, Hela; format: cell-based, human; conditions: 72 h, mean ± SD, three independent experiments
Text: as §1, §2, §3

Hct-116 cells [2] = conditions: cited from earlier work
CNE cells = experiment: MTT cytotoxicity assay, CNE; format: cell-based, human; conditions: 72 h, mean ± SD, three independent experiments
Text: as §1, §2, §3

Spca-2 cells = experiment: MTT cytotoxicity assay, Spca-2; format: cell-based, human; conditions: 72 h; mean ± SD, three independent experiments
Text: as §1, §2
as §3, with “Each concentration was repeated in three wells and the same experimental conditions were provided for all compounds and MTT analysis was repeated three times for each cell line.” left out

ct-DNA [3] = experiment: GelRed-ct-DNA competitive fluorescence quenching (Stern-Volmer); format: binding, calf; parameters: unit not given here; conditions: [GelRed]/[DNA] = 1:10, excitation 350 nm, emission 590 nm
Text: The binding ability of these complexes to ct-DNA was primarily investigated by competitive binding in which they served as an intercalative binding probe in competition with GelRed. GelRed, which is environmentally safe and ultra-sensitive for DNA staining, is a newly developed DNA intercalator to replace the classic DNA intercalator EB. Furthermore, both GelRed and EB bound with ct-DNA emit characteristic fluorescence at 590 nm upon 350 nm UV light excitation.
In competitive binding experiments, GelRed and ct-DNA solutions were pre-incubated for 30 min to ensure sufficient interactions. The concentration ratio of GelRed to DNA was set at [GelRed]/[DNA] = 1:10 to ensure sufficient binding sites of DNA for GelRed. The emission spectra of the GelRed–ctDNA system in the absence and presence of 5b were shown in Figure 2 (for that of 5a and 5c, see Figures S3 and S4). […] The presence of 5b considerably quenched the fluorescence emission of GelRed with the saturation state achieved at the [5b]/[GelRed] ratio of 8:1.
where [DNA] is the DNA concentration in nucleotides, ɛa is the molar extinction coefficient of the compound bound with DNA, ɛf is the extinction coefficient of the free compound, and ɛb is the extinction coefficient of the compound fully bound to DNA. ɛa, ɛf and ɛb are all calculated from the Lambert-Beer’s law (ɛ = A/[compound]). To determine ɛb, it is assumed that the compounds are fully bound with DNA at the point where no further hypochromicity is observed under the addition of ct-DNA, and the apparent absorbance Ab is regarded as the absorbance of only the bound compounds. Ct is the constant concentration of the compounds, and s is the number of binding sites in base pairs. A solution containing 2 × 10^−4 M DNA and 2 × 10^−5 M GelRed ([DNA]/[GelRed] = 10:1) was prepared for GelRed-DNA competitive binding studies. Fluorescence emission spectra were recorded under slit width as 10 nm/10 nm for Ex/Em, respectively. The quenching constant for comparing the efficiency of fluorescence quenching, i.e., Kq, of each compound was obtained by the linear fit of plotting I0/I versus [Q], according to the classic Stern-Volmer equation: I0/I = 1 + Kq × [Q] […] In the fluorescence polarization experiment, each sample was pre-incubated for 40 min before the fluorescence polarization was recorded under the condition of 595 nm emitting wavelength with 350 nm exciting wavelength, and slit width was set as 5 nm/5 nm for Ex/Em, respectively. CD absorption spectra of DNA were measured in TBS at a 100 nm/min scan rate in the wavelength range from 200 to 400 nm, with 1 × 10^−4 M DNA in the absence and presence of each compound of 2 × 10^−5 M, respectively. […]

HepG-2 cells [4] = experiment: Cell cycle analysis by PI flow cytometry, HepG-2; format: cell-based, human; conditions: 48 h, untreated 4.27%
Text: The cell cycle is the series of events that take place in a cell leading to its division and duplication (replication). The cell cycle consists of four distinct phases: G1 phase, S phase (synthesis), G2 phase (collectively known as interphase) and M phase (mitosis). The G1 stage is the stage when preparation of energy and material for DNA replication occurs. The S stage is the stage when DNA replication occurs. The G2 stage is the stage when preparation for the M stage occurs. The M stage is “mitosis,” and is when nuclear and cytoplasmic division occurs.
The cell lines were treated with indicated concentrations of compounds. After being incubated for 48 h, cells were washed twice with ice-cold PBS, fixed and permeabilized with ice-cold 70% ethanol at −20 °C overnight. The cells were treated with 100 μg/mL RNase A at 37 °C for 30 min after washed with ice-cold PBS, and finally stained with 1 mg/mL propidium iodide (PI) in the dark at 4 °C for 30 min. Analysis was performed with the system software (CellQuest; BD Biosciences).

Hct-116 cells [5] = experiment: MTT cytotoxicity assay, Hct-116; format: cell-based, human; conditions: 72 h; mean ± SD, three independent experiments
Text: as §1, §2
as §3, with “Each concentration was repeated in three wells and the same experimental conditions were provided for all compounds and MTT analysis was repeated three times for each cell line.” left out

HepG-2 cells [6] = experiment: Annexin V-FITC/PI apoptosis flow cytometry, HepG-2; format: cell-based, human; conditions: 24 h
Text: Many anthraquinones such as rhein and emodim induce apoptosis. Flow cytometry was used to investigate analog-induced apoptosis and cell death. The compounds (5a–c) with cytotoxic effects were investigated for the effects on the apoptosis of HepG-2 cells. To clarify the mechanism of rhein derivative-induced cell death, we determined both early and late apoptosis using annexin V-FITC and PI (Propidium iodide) labeling of live cells. Annexin V binds to phosphatidylserine, which is exposed on the cell membrane and is one of the earliest indicators of cellular apoptosis. PI is used as a DNA stain for both flow cytometry to evaluate cell viability or DNA content in cell cycle analysis and microscopy to visualize the nucleus and other DNA containing organelles. It can be used to differentiate necrotic, apoptotic and normal cells. In the present study, the apoptotic cell rates were determined for the HepG-2 cells after stimulation for 24 h by the compounds at different concentrations. […] Compounds 5a and 5b induced apoptosis in 84.4% and 70.4% of the HepG-2 cells. Compounds 5a and 5b are of special interest as these compounds seem to drive HepG-2 cells directly into early apoptosis. Meanwhile, we also investigated for the effects on the apoptosis of HUVEC cells.
Apoptosis was discriminated with the annexin V-FITC/propidium iodide test. […]

HUVEC cells = experiment: MTT cytotoxicity assay, HUVEC normal cells; format: cell-based, human; conditions: normal cell line, 72 h, mean ± SD, three independent experiments
Text: as §1, §2, §3

ct-DNA [7] = experiment: Circular dichroism spectra of ct-DNA; format: binding, calf; conditions: [5b]/[DNA] ratio 1:10
Text: The circular dichroism (CD) is a useful technique to assess whether the nucleic acids undergo conformational changes as a result of complex formation or changes in environmental conditions. […] This was consistent with the characteristic B conformation of DNA [56].
The decrease in the intensities of both positive and negative bands can usually be observed in the intercalative binding of small molecules to DNA [57].
where [DNA] is the DNA concentration in nucleotides, ɛa is the molar extinction coefficient of the compound bound with DNA, ɛf is the extinction coefficient of the free compound, and ɛb is the extinction coefficient of the compound fully bound to DNA. ɛa, ɛf and ɛb are all calculated from the Lambert-Beer’s law (ɛ = A/[compound]). To determine ɛb, it is assumed that the compounds are fully bound with DNA at the point where no further hypochromicity is observed under the addition of ct-DNA, and the apparent absorbance Ab is regarded as the absorbance of only the bound compounds. […] Fluorescence emission spectra were recorded under slit width as 10 nm/10 nm for Ex/Em, respectively. The quenching constant for comparing the efficiency of fluorescence quenching, i.e., Kq, of each compound was obtained by the linear fit of plotting I0/I versus [Q], according to the classic Stern-Volmer equation: I0/I = 1 + Kq × [Q] […]

Molecule: O=c1[nH]cc(F)c(=O)[nH]1 [5-Fu, fluorouracil, reference compound]
- IC50 (HepG-2 cells [1]; Homo sapiens, HepG2): 20.3 ± 2.43 µM
- IC50 (Hela cells; Homo sapiens, HeLa): > 50 µM
- IC50 (Hct-116 cells [2]): 4.3 ± 0.52 µM
- IC50 (CNE cells; Homo sapiens, CNE): > 50 µM

Molecule: CCOP(=O)(OCC)C(C)(NC(=O)c1cc(O)c2c(c1)C(=O)c1cccc(O)c1C2=O)c1ccc(C)cc1 (centres unmarked) [5a]
- IC50 (Spca-2 cells): 16.9 ± 1.32 µM
- IC50 (HepG-2 cells [1]): 15.1 ± 1.54 µM
- quenching constant Kq (Stern-Volmer) (ct-DNA [3]): 2.02 × 10^3
- IC50 (Hela cells): > 50 µM
- G2-phase population (HepG-2 cells [4]; HepG-2, 20 μM): 7.23%
- G2-phase population (HepG-2 cells [4]; HepG-2, 30 μM): 11.08%
- G2-phase population (HepG-2 cells [4]; HepG-2, 40 μM): 18.05%
- IC50 (Hct-116 cells [5]): 30.6 ± 8.75 µM
- apoptosis induced, % of HepG-2 cells (HepG-2 cells [6]): 84.4%
- IC50 (CNE cells): 33.8 ± 2.17 µM
- IC50 (HUVEC cells): > 100 µM

Molecule: CCOP(=O)(OCC)C(C)(CCc1ccccc1)NC(=O)c1cc(O)c2c(c1)C(=O)c1cccc(O)c1C2=O (centres unmarked) [5b, O,O′-Diethyl{[2-(4,5-dihydroxy-9,10-dioxo-9,10-dihydroanthracene)acetamido] (Phenylethyl)ethyl} phosphonate]
- IC50 (Spca-2 cells): 9.01 ± 0.87 µM
- IC50 (HepG-2 cells [1]): 8.82 ± 0.95 µM
- quenching constant Kq (Stern-Volmer) (ct-DNA [3]): 3.2 × 10^3
- IC50 (Hela cells): 45.4 µM
- G2-phase population (HepG-2 cells [4]; HepG-2, 10 μM): 8.52%
- G2-phase population (HepG-2 cells [4]; HepG-2, 20 μM): 14.56%
- G2-phase population (HepG-2 cells [4]; HepG-2, 30 μM): 18.23%
- IC50 (Hct-116 cells [5]): 12.7 ± 1.5 µM
- apoptosis induced, % of HepG-2 cells (HepG-2 cells [6]): 70.4%
- IC50 (CNE cells): 27.3 ± 3.78 µM
- percentage decrease in maximal DNA negative CD absorption (ct-DNA [7]; negative band at 245 nm): 32.2%
- percentage decrease in maximal DNA positive CD absorption (ct-DNA [7]; positive band at 280 nm): 9.78%
- IC50 (HUVEC cells): > 100 µM

Molecule: O=C(O)c1cc(O)c2c(c1)C(=O)c1cccc(O)c1C2=O [Rhein]
- quenching constant Kq (Stern-Volmer) (ct-DNA [3]): 3.94 × 10^3
- IC50 (Hela cells; Homo sapiens, HeLa): > 50 µM
- IC50 (HUVEC cells; Homo sapiens, HUVEC): 79.7 ± 5.4 µM

Molecule: O,O′-Diethyl {[2-(4,5-dihydroxy-9,10-dioxo-9,10-dihydroanthracene) acetamido] (phenyl) methyl} phosphonate [5c]
- IC50 (Spca-2 cells): 25.1 ± 2.72 µM
- IC50 (HepG-2 cells [1]): 18.2 ± 1.87 µM
- quenching constant Kq (Stern-Volmer) (ct-DNA [3]): 0.753 × 10^3
- IC50 (Hela cells): > 50 µM
- IC50 (Hct-116 cells [5]): 23.4 ± 3.22 µM
- IC50 (CNE cells): 38.3 ± 8.23 µM
- IC50 (HUVEC cells): > 100 µM
